The values that follow come from PubChem BioAssay AID1918939 (Molecular Pharmacology Branch, DTP, NCI, 2023).

The term IC50 denotes the midpoint of a concentration-inhibition curve. One may read the viability, T/C as the result in the treated group divided by that in the control group, in per cent.

In this assay the test system is 653999-131-R-J2-PDC complex spheroid viability. In words: Anticancer human tumor 653999-131-R-J2-PDC patient-derived lung adenocarcinoma cell line growth inhibition. Conditions: for viability, T/C: stronger effect = lower value. In a few lines:
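Multicellular complex spheroids of tumor cells with human endothelial cells (HUVEC) and mesenchymal stem cells; the LSD1 inhibitor iadademstat was combined with standard-of-care or investigational agents. Top concentration at or near clinical Cmax, half-log dilutions; final DMSO ≤0.25%.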

[1] abbreviates: curve of first compound, second compound 0.1 µM.
[2] abbreviates: curve of first compound, second compound 0.316 µM.
[3] abbreviates: curve of first compound, second compound 1 µM.
[4] abbreviates: curve of first compound, second compound 3.16 µM.
Setting [5] is: curve of first compound, second compound 10 µM.
[6] abbreviates: second compound 0.1 µM, first compound 0.0316 µM.
Setting [7] is: second compound 0.1 µM, first compound 0.1 µM.
Setting [8] is: second compound 0.316 µM, first compound 0.0316 µM.
Setting [9] is: second compound 0.316 µM, first compound 0.1 µM.
Setting [10] is: second compound 1 µM, first compound 0.0316 µM.
[11] abbreviates: second compound 1 µM, first compound 0.1 µM.
The mark [12] stands for this setting: second compound 3.16 µM, first compound 0.0316 µM.
Where [13] appears, read: second compound 3.16 µM, first compound 0.1 µM.
[14] abbreviates: second compound 10 µM, first compound 0.0316 µM.
The mark [15] stands for this setting: second compound 10 µM, first compound 0.1 µM.
Setting [16] is: second compound 0.1 µM, first compound 0.316 µM.
The mark [17] stands for this setting: second compound 0.1 µM, first compound 1 µM.
The mark [18] stands for this setting: second compound 0.1 µM, first compound 3.16 µM.
Setting [19] is: second compound 0.1 µM, first compound 10 µM.
The mark [20] stands for this setting: second compound 0.316 µM, first compound 0.316 µM.
Setting [21] is: second compound 0.316 µM, first compound 1 µM.
[22] abbreviates: second compound 0.316 µM, first compound 3.16 µM.
Setting [23] is: second compound 0.316 µM, first compound 10 µM.
Setting [24] is: second compound 1 µM, first compound 0.316 µM.
Where [25] appears, read: second compound 1 µM, first compound 1 µM.
Where [26] appears, read: second compound 1 µM, first compound 3.16 µM.
Where [27] appears, read: second compound 1 µM, first compound 10 µM.
The mark [28] stands for this setting: second compound 3.16 µM, first compound 0.316 µM.
[29] abbreviates: second compound 3.16 µM, first compound 1 µM.
Where [30] appears, read: second compound 3.16 µM, first compound 3.16 µM.
Where [31] appears, read: second compound 3.16 µM, first compound 10 µM.
[32] abbreviates: second compound 10 µM, first compound 0.316 µM.
Where [33] appears, read: second compound 10 µM, first compound 1 µM.
[34] abbreviates: second compound 10 µM, first compound 3.16 µM.
Setting [35] is: second compound 10 µM, first compound 10 µM.

Values joined by “and” are separate entries in the source; they are usually repeats but may differ in a detail not shown here. Identical values can stand only once.
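Note: spheroids exposed to agents for seven days before readout.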

Regarding `CC(C)CC(NC(=O)C(Cc1ccccc1)NC(=O)c1cnccn1)B(O)O` (configuration not stated) + NC1CCC(NC2CC2c2ccccc2)CC1, the IC50 under setting [1] was found to be 2.28 nM; the IC50 under setting [2] came to 2.47 nM; the IC50 under setting [3] is 2.96 nM; the IC50 under setting [4] amounted to 2.31 nM; the half-inhibitory concentration (IC50) under setting [5] stood at 2.2 nM. Moreover, the viability, T/C (second compound 0.1 µM, first compound 0.000316 µM) is 108%; the viability, T/C (second compound 0.1 µM, first compound 0.001 µM) was 107%; the viability, T/C (second compound 0.1 µM, first compound 0.00316 µM) was 27.5%; the viability, T/C (second compound 0.1 µM, first compound 0.01 µM) is 3.82%; the viability, T/C under setting [6] was 2.01%; the viability, T/C under setting [7] is 1.51%. The viability, T/C was 123% (second compound 0.316 µM, first compound 0.000316 µM); 124% (second compound 0.316 µM, first compound 0.001 µM); 30.1% (second compound 0.316 µM, first compound 0.00316 µM); 5.95% (second compound 0.316 µM, first compound 0.01 µM); 0.76% under setting [8]; 1.38% under setting [9]. Also, the viability, T/C (second compound 1 µM, first compound 0.000316 µM) was 115%; the viability, T/C (second compound 1 µM, first compound 0.001 µM) is 115%; the viability, T/C (second compound 1 µM, first compound 0.00316 µM) was 46.1%; the viability, T/C (second compound 1 µM, first compound 0.01 µM) is 4.39%; the viability, T/C under setting [10] was 1.9%; the viability, T/C under setting [11] is 1.12%. The viability, T/C runs as follows: (second compound 3.16 µM, first compound 0.000316 µM) 97.6%; (second compound 3.16 µM, first compound 0.001 µM) 123%; (second compound 3.16 µM, first compound 0.00316 µM) 27.4%; (second compound 3.16 µM, first compound 0.01 µM) 3.37%; under setting [12], 1.02%; under setting [13], 2.22%. The viability, T/C (second compound 10 µM, first compound 0.000316 µM) was 117%; the viability, T/C (second compound 10 µM, first compound 0.001 µM) is 119%; the viability, T/C (second compound 10 µM, first compound 0.00316 µM) is 18.5%; the viability, T/C (second compound 10 µM, first compound 0.01 µM) is 2.92%; the viability, T/C under setting [14] is 1.36%; the viability, T/C under setting [15] was 0.56%.

With `CC1COCCN1c1cc(-c2ccnn2C)c2ccnc(-c3ccn[nH]3)c2n1` (configuration not stated), the viability, T/C is 81.7% and 58.4% (compound 0.00316 µM); 66.4% and 56.5% (compound 0.01 µM); 36.3% and 41.4% (compound 0.0316 µM); 31.9% and 35.9% (compound 0.1 µM); 29.8% and 45.5% (compound 0.316 µM); 30.5% and 53.4% (compound 1 µM). The IC50 (curve of compound) is 18.8 nM and 18.2 nM.

On to `Nc1ncn(C2CC(O)C(CO)O2)c(=O)n1` (configuration not stated), for which the viability, T/C is 89% and 109% (compound 0.00316 µM); 105% and 103% (compound 0.01 µM); 83.9% and 95.3% (compound 0.0316 µM); 78.7% and 96.2% (compound 0.1 µM); 80.5% and 91.1% (compound 0.316 µM); 79.3% and 85.2% (compound 1 µM). Also, the IC50 (curve of compound) is more than 1000 nM.

On to `Cn1ncnc1C1c2n[nH]c(=O)c3cc(F)cc(c23)NC1c1ccc(F)cc1` (configuration not stated), for which the viability, T/C was 97.3% and 103% (compound 0.000316 µM); 92.2% and 108% (compound 0.001 µM); 96% and 98.3% (compound 0.00316 µM); 99.2% and 101% (compound 0.01 µM); 89.6% and 93.2% (compound 0.0316 µM); 94% and 91.3% (compound 0.1 µM). Further, where the note is “curve of compound”, the IC50 was more than 100 nM.

Regarding `O=C(c1cc(Cc2n[nH]c(=O)c3ccccc23)ccc1F)N1CCN(C(=O)C2CC2)CC1` + NC1CC1c1ccc(-c2cccc(O)c2)cc1, the IC50 reads like this: under setting [1], more than 10000 nM; under setting [2], more than 10000 nM; under setting [3], more than 10000 nM; under setting [4], more than 10000 nM; under setting [5], more than 10000 nM. Moreover, the viability, T/C reads like this: under setting [6], 102%; under setting [7], 106%; under setting [16], 95.1%; under setting [17], 89.1%; under setting [18], 76.5%; under setting [19], 66.1%. Moreover, the viability, T/C was 93.8% under setting [8]; 90.7% under setting [9]; 82.6% under setting [20]; 72% under setting [21]; 59.9% under setting [22]; 65.4% under setting [23]. Also, the viability, T/C under setting [10] is 86.1%; the viability, T/C under setting [11] was 80.4%; the viability, T/C under setting [24] is 90.8%; the viability, T/C under setting [25] is 64.3%; the viability, T/C under setting [26] is 75.3%; the viability, T/C under setting [27] is 63.5%. Further, the viability, T/C is, setting by setting: under setting [12], 78.5%; under setting [13], 87.2%; under setting [28], 87%; under setting [29], 82.5%; under setting [30], 71.4%; under setting [31], 64.6%. Besides, the viability, T/C was 92.8% under setting [14]; 79.7% under setting [15]; 87.9% under setting [32]; 78.3% under setting [33]; 71.7% under setting [34]; 58.5% under setting [35].

On to `CCc1c2c(nc3ccc(O)cc13)-c1cc3c(c(=O)n1C2)COC(=O)[C@]3(O)CC`, for which the viability, T/C runs as follows: (compound 0.000949 µM) 25.8% and 33.6%; (compound 0.003 µM) 18.4% and 20.9%; (compound 0.00949 µM) 11.9% and 12.5%; (compound 0.03 µM) 7.76% and 6.48%; (compound 0.0949 µM) 5.86% and 7.35%; (compound 0.3 µM) 5.31% and 11.3%. Moreover, the IC50 (curve of compound) was less than 0.949 nM.

As for `COc1ccc([C@@H](O)c2cc(-c3ncnc4cc(N5CCOCC5)ccc34)c(F)cc2Cl)nn1` + NC1CC1c1ccc(-c2cccc(O)c2)cc1, the IC50 is, setting by setting: under setting [1], 2810 nM; under setting [2], 1250 nM; under setting [3], 972 nM; under setting [4], 1130 nM; under setting [5], 968 nM. In addition, the viability, T/C runs as follows: under setting [6], 79.2%; under setting [7], 84.6%; under setting [16], 72.1%; under setting [17], 55%; under setting [18], 54.1%; under setting [19], 28.5%. The viability, T/C was 74.1% under setting [8]; 86.5% under setting [9]; 65.8% under setting [20]; 51.1% under setting [21]; 40.7% under setting [22]; 26.5% under setting [23]. Besides, the viability, T/C is 85.6% under setting [10]; 74.3% under setting [11]; 70.2% under setting [24]; 49.3% under setting [25]; 31.9% under setting [26]; 24.4% under setting [27]. The viability, T/C by setting is: under setting [12], 77.4%; under setting [13], 71.5%; under setting [28], 63.2%; under setting [29], 49.5%; under setting [30], 39.4%; under setting [31], 22.6%. The viability, T/C is 71.2% under setting [14]; 70.6% under setting [15]; 58.2% under setting [32]; 53.3% under setting [33]; 33% under setting [34]; 26.1% under setting [35].

For the compound `COc1cc(C2c3cc4c(cc3C(OC3OC5COC(C)OC5C(O)C3O)C3COC(=O)C23)OCO4)cc(OC)c1O` (configuration not stated), the viability, T/C is, setting by setting: (compound 0.00949 µM) 80.5% and 89.5%; (compound 0.03 µM) 76.5% and 74.9%; (compound 0.0949 µM) 64.3% and 57.3%; (compound 0.3 µM) 42.8% and 45.1%; (compound 0.949 µM) 37.4% and 36.7%; (compound 3 µM) 25.3% and 27.8%. For the same compound, the IC50 (curve of compound) was 230 nM and 199 nM.

With `CC1COCCN1c1cc(C2(S(C)(=N)=O)CC2)nc(-c2ccnc3[nH]ccc23)n1` (configuration not stated), the viability, T/C is, setting by setting: (compound 0.0316 µM) 107% and 106%; (compound 0.1 µM) 85.1% and 117%; (compound 0.316 µM) 79.9% and 107%; (compound 1 µM) 57.8% and 84.8%; (compound 3.16 µM) 38.3% and 58.8%; (compound 10 µM) 37.8% and 56.7%. Moreover, the IC50 (curve of compound) is 1810 nM and > 10000 nM.
